Test results: patent US20190192521A1, “Methods of Treating Arid1A-Mutated Cancers With HDAC6 Inhibitors and EZH2 Inhibitors” (The Wistar Institute of Anatomy and Biology, priority 2016, published 2019)

Columns and labels:
[1] = tested on: p53 target genes (BAX, PUMA, NOXA, CDKN1A) in ARID1A-mutated TOV21G cells; experiment: RNA-seq of p53 target genes; assay type: cell-based, human; settings: 1.25 μM
Source text: RNA was extracted and utilized for next generation sequencing (RNA-seq). Expression of p53 target genes known to regulate apoptosis such as BAX, PUMA and NOXA, and known to regulate cell cycle arrest such as CDKN1A were not altered by HDAC6 inhibition in RNA-seq analysis.

[2] = tested on: ARID1A-mutated TOV21G cells; experiment: mitochondrial membrane potential (TMRE, FACS), TOV21G; assay type: cell-based, human
Experimental: Mean of five experimental replicates with S.E.M. p-value calculated via two-tailed t-test.
FIG. 96 illustrates ARID1A-mutated TOV21G cells with or without endogenous p53 knockdown by a shp53 that targets the 3′ UTR region of the human TP53 gene together with a lentivirus encoding a control, wildtype p53 or a p53K12OR mutant—the indicated cells were treated with or without ACY1215 and examined for mitochondrial membrane potential by FACS; n=3 independent experiments.
(§1) Annexin V and mitochondria membrane potentials were measured as follows. Phosphatidylserine externalization was detected using an Annexin V staining kit (Life Technologies) following the manufacturer's instructions. To measure change in mitochondria membrane potential cells were treated with 200 nM of tetramethylrhodamine, ethyl ester (TMRE; Abcam) for 15 min at 37° C. Annexin V and TMRE-positive cells were detected using the LSR18 and analyzed with the FlowJo software module.

[3] = tested on: ARID1A wild-type RMG1 cells with or without shARID1A; experiment: mitochondrial membrane potential (TMRE, FACS), RMG1; assay type: cell-based, human; settings: 1.25 μM
Experimental: The mitochondria membrane potential was quantified by TMRE using FACS analysis. Data was collected via FACS and is representative of 3 independent experiments.
Error bars represent standard error mean. The p-value was calculated via two-tailed t-test.
as §1

[4] = tested on: ARID1A-mutated TOV21G cells; experiment: ACY1215 sensitivity of TOV21G cells with or without wildtype ARID1A restoration; assay type: cell-based, human
Experimental: Colony formation assays were performed as follows. Cell lines were infected with lentivirus pLKO.1-shRNAs or pLKO.1-control with puromycin selection marker. Infected cells were selected with 1 μg/mL of puromycin for 72 hours and the selected cells were seeded in 12-well or 24-well plates. Cell medium was changed every three days with appropriate drug doses for 14 days or until control wells became confluent. Colonies were washed twice with PBS and fixed with 10% methanol and 10% acetic acid in distilled water. Fixed colonies were stained with 0.005% crystal violet. Integrated density was measured using NIH ImageJ software.

[5] = tested on: ARID1A-mutated TOV21G tumors; experiment: intrabursal orthotopic xenograft, ARID1A-mutated TOV21G; assay type: in vivo, mice
Source text: Luciferase-expressing ARID1A-mutated TOV21G cells were orthotopically transplanted into the ovarian bursa sac of SCID/nude female mice. Tumors were allowed to establish for 14 days before randomized into two groups (n=6/group).
During treatment at indicated time interval mice were imaged based on luciferase expression to monitor tumor growth. Total flux (photons/sec) is graphed. *p=0.0313.
ARID1A-mutated TOV21G cells were orthotopically transplanted into the ovarian bursa sac of SCID/nude female mice. Tumors were allowed to establish for 2 weeks before the mice were randomized into two different treatment groups (n=5/group). […] After stopping the treatment, the mice from the indicated groups were followed for survival. Shown is the Kaplan-Meier survival curves for ACY1215 or vehicle control treated mice. The p-value was calculated by log-rank test.
The number of disseminated tumor nodules in peritoneal cavity was quantified.
Histological score (H-score) was calculated for 5 separate fields from 6 tumors from 6 individual mice from each of the indicated groups. Error bars represent S.E.M. The p-value was calculated via two-tailed t-test.
Immunofluorescence and immunohistochemical staining was performed as follows. Immunofluorescence was performed after 48 hours as indicated by fixing samples in 4% paraformaldehyde and permeabilizing with 0.5% Triton-X. Samples were incubated with primary antibodies for 2 hours at room temperature, highly cross absorbed secondary antibodies (Invitrogen) for 1 hour at room temperature and mounted with prolong anti-fade reagent (Invitrogen). Immuno-stained cells were imaged using a Leica Confocal microscope. […] Bitler et al. Nat. Med. 2015, 21, 231-238; Bitler et al. Cancer Research 2011, 71, 6184-6194. Expression of the stained markers was scored using a histologic score (H score) as previously described. McCarty, Jr. et al. Cancer research 1986, 46, 4244s-4248s.
The intrabursal orthotopic xenograft in vivo model was performed as described previously (Bitler et al. Nat. Med. 2015, 21, 231-238; Bitler et al. Cancer Research 2011, 71, 6184-6194). The protocols were approved by the Institutional Animal Care and Use Committee (IACUC). Briefly, 1×10^6 luciferase-expressing TOV-21G or RMG1 cells were unilaterally injected into the ovarian bursa sac of immunocompromised mice (n=6 per group). Two weeks after injection, tumors were visualized by injecting luciferin (intraperitoneal (i.p.): 4 mg/mice) resuspended in PBS and imaged with an In Vivo Imaging System (IVIS). […] Images were analyzed using Live Imaging 4.0 software. At end of the experiments, tumors were surgically dissected and tumor burden was calculated based on tumor weight. Intraperitoneally disseminated tumor nodules were quantified.
Seidel et al. Epigenomics 2015, 7, 103-118. […] Santo et al. Blood 2012, 119, 2579-2589. To determine the effects of HDAC6 inhibition in vivo on the growth of ARID1A-mutated tumors, luciferase-expressing ARID1A-mutated TOV21G cells were orthotopically transplanted into the bursa-sac covering the ovary of immunocompromised nude mice to mimic the tumor microenvironment. The injected ARID1A wild-type or mutant cells were allowed to grow for 2 weeks to establish the orthotopic tumors.

[6] = tested on: p53K120Ac in ARID1A wild-type RMG1 cells with or without ARID1A knockdown; experiment: immunoblot of p53K120Ac, RMG1 with or without shARID1A; assay type: cell-based, human; settings: 1.25 μM
Experimental: Expression of the indicated proteins was examined by immunoblot. GAPDH expression was used as a loading control.
For immunoblotting, protein was isolated as described in Bitler et al. Nat. Med. 2015, 21, 231-238. Briefly, protein was extracted with RIPA buffer (150 mM NaCl, 1% NP40, 0.5% sodium deoxycholate, 0.1% SDS, 50 mM Tris pH 8.0, and 1 mM PMSF). Protein was separated on a SDS-PAGE and transferred to PVDF membrane. For immunoblot of p53 post-translation modifications, cells were treated with a proteasome inhibitor MG132 (10 μM) to stabilize p53 protein.

[7] = dissected ARID1A-mutated tumors

O=C(CCCCCCNC(=O)c1cnc(N(c2ccccc2)c2ccccc2)nc1)NO [rocilinostat, 2-(diphenylamino)-N-(7-(hydroxyamino)-7-oxoheptyl)pyrimidine-5-carboxamide]
expression of p53 target genes (BAX, PUMA, NOXA, CDKN1A) [1]: not altered
mitochondrial membrane potential in ARID1A-mutated cells ([2]; 1.25 μM): significantly decreased
dependence of mitochondrial membrane potential decrease ([2]; p53 knockdown, wildtype p53 or p53K120R rescue): both p53 and p53K120Ac dependent
mitochondrial membrane potential, ARID1A knockdown compared with controls [3]: significantly decreased
effect of restoration of wildtype ARID1A on sensitivity [4]: reduced the sensitivity
growth of ARID1A-mutated tumors (luciferase total flux) ([5]; 50 mg/kg daily i.p., 21 days): significantly inhibited the growth
number of tumor nodules in peritoneal cavity ([5]; 50 mg/kg daily, 3 weeks): significant decrease in the number of tumor nodules
tumor burden (tumor weight) ([5]; 50 mg/kg daily, 3 weeks): significantly reduced the burden
survival of mice bearing ARID1A-mutated tumors ([5]; 50 mg/kg daily, 3 weeks, followed after stopping treatment): significantly improved the survival
median survival ([5]; 50 mg/kg daily, 3 weeks, vehicle control 35 days, p=0.0023): 51 days
HDAC6 expression (IHC) [5, 7]: not affected
apoptotic marker cleaved caspase 3 (IHC H-score) [5, 7]: increased
cell proliferation marker Ki67 (IHC H-score) [5, 7]: significantly decreased
p53K120Ac staining (IHC) [5, 7]: significantly increased
p53K120Ac in ARID1A knockdown cells compared with controls [6]: significant increase in p53K120Ac
